For 9 compounds, IC50 and Nav1.4/Nav1.7 results are on record in patent US10344060B2 (priority 2013, dated 2019).

Molecules are shown by their SMILES. Bridge positions count the residues as written; N and C are the ends. Square brackets hold non-standard residues; d marks the D form. Peptide text beside a SMILES is read from it. Cha = N[C@@H](CC1CCCCC1)C(=O)O; Ala(CN) = N#CC[C@H](N)C(=O)O; Nle = CCCC[C@H](N)C(=O)O; Pra = C#CC[C@H](N)C(=O)O

One test deals with hNav1.4 (Homo sapiens, UniProt P35499). Kind of test: cell-based. Conditions: Table 12; for IC50: PatchXpress, tonic block, read-out: PX hNav1.4 Tonic IC50; for Nav1.4/Nav1.7: ratio of PX tonic IC50 values. It is filed as cell-based.
Chain of hNav1.4 (P35499 whole entry): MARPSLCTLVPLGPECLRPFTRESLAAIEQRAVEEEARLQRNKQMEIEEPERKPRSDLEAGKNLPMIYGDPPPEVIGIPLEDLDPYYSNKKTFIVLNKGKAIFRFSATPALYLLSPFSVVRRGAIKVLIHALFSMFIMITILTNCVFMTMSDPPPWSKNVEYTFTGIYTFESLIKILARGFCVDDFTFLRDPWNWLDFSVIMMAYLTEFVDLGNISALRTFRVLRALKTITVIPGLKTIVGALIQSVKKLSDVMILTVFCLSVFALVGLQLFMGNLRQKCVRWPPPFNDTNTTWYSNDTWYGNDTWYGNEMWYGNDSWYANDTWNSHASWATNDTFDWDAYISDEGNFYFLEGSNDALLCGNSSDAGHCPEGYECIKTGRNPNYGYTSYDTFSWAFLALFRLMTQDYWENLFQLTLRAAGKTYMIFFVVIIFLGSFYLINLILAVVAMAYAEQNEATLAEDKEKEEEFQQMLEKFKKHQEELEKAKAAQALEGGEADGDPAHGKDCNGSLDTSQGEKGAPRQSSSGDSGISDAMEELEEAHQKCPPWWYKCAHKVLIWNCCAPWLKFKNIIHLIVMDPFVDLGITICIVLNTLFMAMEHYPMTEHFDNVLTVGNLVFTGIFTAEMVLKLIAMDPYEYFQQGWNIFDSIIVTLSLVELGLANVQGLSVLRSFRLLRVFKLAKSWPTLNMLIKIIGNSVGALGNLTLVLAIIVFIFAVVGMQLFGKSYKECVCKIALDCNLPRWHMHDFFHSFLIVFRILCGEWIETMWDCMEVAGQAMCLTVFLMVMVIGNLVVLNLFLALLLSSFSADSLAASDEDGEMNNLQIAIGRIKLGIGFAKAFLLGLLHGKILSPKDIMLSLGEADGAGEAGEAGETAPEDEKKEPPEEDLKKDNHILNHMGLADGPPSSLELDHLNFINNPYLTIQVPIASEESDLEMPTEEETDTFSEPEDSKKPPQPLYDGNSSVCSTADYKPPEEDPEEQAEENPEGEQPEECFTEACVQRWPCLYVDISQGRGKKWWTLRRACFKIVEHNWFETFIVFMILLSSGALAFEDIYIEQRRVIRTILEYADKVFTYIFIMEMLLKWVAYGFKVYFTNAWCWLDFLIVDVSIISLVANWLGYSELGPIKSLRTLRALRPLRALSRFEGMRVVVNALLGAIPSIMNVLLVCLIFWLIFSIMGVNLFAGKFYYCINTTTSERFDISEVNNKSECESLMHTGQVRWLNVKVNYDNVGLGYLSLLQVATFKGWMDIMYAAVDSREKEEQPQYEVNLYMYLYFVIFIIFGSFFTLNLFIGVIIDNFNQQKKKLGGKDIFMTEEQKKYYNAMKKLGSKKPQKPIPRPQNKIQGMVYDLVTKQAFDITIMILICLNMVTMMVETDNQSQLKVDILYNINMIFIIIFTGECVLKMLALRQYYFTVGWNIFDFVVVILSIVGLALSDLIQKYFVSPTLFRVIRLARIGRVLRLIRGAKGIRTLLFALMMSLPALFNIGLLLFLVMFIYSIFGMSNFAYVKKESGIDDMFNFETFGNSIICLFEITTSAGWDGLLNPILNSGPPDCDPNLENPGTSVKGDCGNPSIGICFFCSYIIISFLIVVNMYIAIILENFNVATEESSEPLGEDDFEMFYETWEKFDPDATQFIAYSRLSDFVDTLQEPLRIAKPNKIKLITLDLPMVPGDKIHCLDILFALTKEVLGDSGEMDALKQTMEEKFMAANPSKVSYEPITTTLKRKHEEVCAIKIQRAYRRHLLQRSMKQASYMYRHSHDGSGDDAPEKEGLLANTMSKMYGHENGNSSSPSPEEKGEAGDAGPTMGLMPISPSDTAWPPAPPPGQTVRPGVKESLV
Another test has as its target hNav1.7 (Homo sapiens, UniProt Q15858). Kind of test: cell-based. It is filed as cell-based. Particulars: Table 12; PatchXpress, tonic block; read-out: PX hNav1.7 Tonic IC50.

Chain of hNav1.7 (Q15858 whole entry): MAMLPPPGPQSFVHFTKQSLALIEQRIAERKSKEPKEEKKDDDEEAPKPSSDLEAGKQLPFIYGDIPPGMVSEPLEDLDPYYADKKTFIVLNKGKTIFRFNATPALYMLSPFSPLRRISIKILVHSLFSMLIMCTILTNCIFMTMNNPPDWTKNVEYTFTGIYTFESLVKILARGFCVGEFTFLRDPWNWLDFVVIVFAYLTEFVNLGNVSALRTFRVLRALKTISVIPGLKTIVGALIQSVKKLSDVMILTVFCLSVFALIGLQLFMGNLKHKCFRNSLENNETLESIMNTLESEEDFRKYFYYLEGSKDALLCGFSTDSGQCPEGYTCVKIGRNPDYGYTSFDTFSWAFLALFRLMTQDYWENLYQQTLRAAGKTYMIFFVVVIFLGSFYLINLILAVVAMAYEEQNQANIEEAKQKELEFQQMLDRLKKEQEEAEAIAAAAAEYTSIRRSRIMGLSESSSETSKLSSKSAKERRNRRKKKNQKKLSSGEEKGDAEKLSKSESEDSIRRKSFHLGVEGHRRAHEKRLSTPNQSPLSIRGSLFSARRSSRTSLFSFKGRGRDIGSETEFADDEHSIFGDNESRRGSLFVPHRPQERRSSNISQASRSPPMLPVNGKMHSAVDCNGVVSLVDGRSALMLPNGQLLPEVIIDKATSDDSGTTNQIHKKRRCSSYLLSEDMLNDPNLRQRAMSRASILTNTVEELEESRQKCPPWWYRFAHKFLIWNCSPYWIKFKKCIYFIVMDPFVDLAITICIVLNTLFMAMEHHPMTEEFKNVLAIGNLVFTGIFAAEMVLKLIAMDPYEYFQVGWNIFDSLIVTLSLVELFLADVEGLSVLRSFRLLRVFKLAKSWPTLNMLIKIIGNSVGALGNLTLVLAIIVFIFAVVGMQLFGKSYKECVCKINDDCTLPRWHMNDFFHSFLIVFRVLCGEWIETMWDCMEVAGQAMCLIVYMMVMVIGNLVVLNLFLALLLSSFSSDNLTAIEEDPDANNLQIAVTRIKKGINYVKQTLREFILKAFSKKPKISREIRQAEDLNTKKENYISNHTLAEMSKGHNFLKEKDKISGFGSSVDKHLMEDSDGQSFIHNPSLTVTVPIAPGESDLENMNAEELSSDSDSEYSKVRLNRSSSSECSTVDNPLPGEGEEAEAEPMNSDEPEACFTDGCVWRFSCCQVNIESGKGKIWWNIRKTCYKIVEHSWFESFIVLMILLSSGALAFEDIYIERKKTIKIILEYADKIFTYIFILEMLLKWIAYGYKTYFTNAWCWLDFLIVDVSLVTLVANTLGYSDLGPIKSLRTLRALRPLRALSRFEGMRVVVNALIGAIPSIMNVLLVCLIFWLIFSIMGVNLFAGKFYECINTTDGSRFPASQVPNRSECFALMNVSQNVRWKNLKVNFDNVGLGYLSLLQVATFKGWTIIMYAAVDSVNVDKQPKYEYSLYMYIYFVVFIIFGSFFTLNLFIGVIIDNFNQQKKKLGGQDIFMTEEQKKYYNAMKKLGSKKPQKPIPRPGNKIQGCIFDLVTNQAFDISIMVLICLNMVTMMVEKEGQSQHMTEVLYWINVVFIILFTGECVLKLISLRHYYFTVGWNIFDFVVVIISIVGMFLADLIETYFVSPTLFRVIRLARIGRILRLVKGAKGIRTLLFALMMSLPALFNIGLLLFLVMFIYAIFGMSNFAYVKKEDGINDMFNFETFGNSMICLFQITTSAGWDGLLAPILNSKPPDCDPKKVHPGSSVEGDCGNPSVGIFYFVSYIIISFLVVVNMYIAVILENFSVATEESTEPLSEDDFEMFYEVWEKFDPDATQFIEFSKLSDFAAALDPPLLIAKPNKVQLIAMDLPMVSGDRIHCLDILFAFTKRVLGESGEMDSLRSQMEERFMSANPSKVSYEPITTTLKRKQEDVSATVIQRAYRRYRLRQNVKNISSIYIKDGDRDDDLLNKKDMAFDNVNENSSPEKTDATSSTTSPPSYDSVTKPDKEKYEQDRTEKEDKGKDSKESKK

In general, IC50 refers to the concentration needed to halve the response being measured. In the case of `C#CC[C@H](N)C(=O)N[C@@H](Cc1ccc(O)cc1)C(=O)N[C@H]1CSSC[C@@H]2NC(=O)[C@@H]3CSSC[C@@H](C(=O)N[C@@H](CCCNC(=N)N)C(=O)N[C@@H](CCCCN)C(=O)N[C@@H](CCC(=O)O)C(=O)N[C@H](C(N)=O)[C@@H](C)CC)NC(=O)[C@H](Cc4c[nH]c5ccccc45)NC(=O)[C@H](CC(C)C)NC(=O)[C@H](CCCCN)NC(=O)[C@H](CSSC[C@H](NC(=O)[C@H]([C@@H](C)O)NC(=O)[C@H](Cc4c[nH]c5ccccc45)NC(=O)[C@H](Cc4ccccc4)NC(=O)[C@H](Cc4c[nH]c5ccccc45)NC(=O)[C@H](CCCCN)NC(=O)[C@H](CCC(N)=O)NC1=O)C(=O)N[C@@H](CC(=O)O)C(=O)N[C@@H](CO)C(=O)N[C@@H](CCCCN)C(=O)N[C@@H](CCCNC(=N)N)C(=O)N[C@@H](C)C(=O)N3)NC(=O)[C@H](CCCNC(=N)N)NC(=O)[C@H](CC(C)C)NC(=O)CNC(=O)[C@H](CCC(=O)O)NC2=O` [compound 863], on hNav1.4, the concentration for half-maximal inhibition (IC50) amounted to 61.6 nM and the Nav1.4/Nav1.7 is on record as 45. Further, the IC50 at hNav1.7 is 1.36 nM.
As to `C#CC[C@@H]1NC(=O)[C@@H]2CSSC[C@H](NC(=O)[C@H](Cc3ccc(O)cc3)NC(=O)[C@@H](N)CC#N)C(=O)N[C@@H](CCC(N)=O)C(=O)N[C@@H](CCCCN)C(=O)N[C@@H](Cc3c[nH]c4ccccc34)C(=O)N[C@@H](CCCC)C(=O)N[C@@H](Cc3c[nH]c4ccccc34)C(=O)N[C@@H]([C@@H](C)O)C(=O)N[C@H]3CSSC[C@H](NC(=O)[C@H](CCCNC(=N)N)NC(=O)[C@H](CC(C)C)NC(=O)CNC1=O)C(=O)N[C@@H](CCCCN)C(=O)N[C@@H](CC(C)C)C(=O)N[C@@H](Cc1c[nH]c4ccccc14)C(=O)N[C@H](C(=O)N[C@@H](CCCNC(=N)N)C(=O)N[C@@H](CCCCN)C(=O)N[C@@H](CCC(=O)O)C(=O)N[C@@H](Cc1ccccc1)C(N)=O)CSSC[C@H](NC(=O)[C@H](C)NC(=O)[C@H](CCCNC(=N)N)NC(=O)[C@H](CCCCN)NC(=O)[C@H](CO)NC(=O)[C@H](CC(=O)O)NC3=O)C(=O)N2` [compound 876], on hNav1.4, the IC50 was 72.1 nM and the Nav1.4/Nav1.7 was 66. Moreover, at hNav1.7, the IC50 stood at 1.09 nM.
For the compound `C#CC[C@@H]1NC(=O)[C@@H]2CSSC[C@H](NC(=O)[C@H](Cc3ccc(O)cc3)NC(=O)[C@@H](N)CC#N)C(=O)N[C@@H](CCC(N)=O)C(=O)N[C@@H](CCCCN)C(=O)N[C@@H](Cc3c[nH]c4ccccc34)C(=O)N[C@@H](CCCC)C(=O)N[C@@H](Cc3c[nH]c4ccccc34)C(=O)N[C@@H]([C@@H](C)O)C(=O)N[C@H]3CSSC[C@H](NC(=O)[C@H](CCCNC(=N)N)NC(=O)[C@H](CC(C)C)NC(=O)CNC1=O)C(=O)N[C@@H](CCCCN)C(=O)N[C@@H](CC(C)C)C(=O)N[C@@H](Cc1c[nH]c4ccc(Br)cc14)C(=O)N[C@H](C(=O)N[C@@H](CCCNC(=N)N)C(=O)N[C@@H](CCCCN)C(=O)N[C@H](C(=O)N[C@H](C(N)=O)[C@@H](C)CC)[C@@H](C)CC)CSSC[C@H](NC(=O)[C@H](C)NC(=O)[C@H](CCCNC(=N)N)NC(=O)[C@H](CCCCN)NC(=O)[C@H](CO)NC(=O)[C@H](CC(=O)O)NC3=O)C(=O)N2` [compound 872], on hNav1.4, the IC50 is 3.6 nM and the Nav1.4/Nav1.7 is reported as 3. At hNav1.7, the concentration for half-maximal inhibition (IC50) worked out at 1.09 nM.
For `C#CC[C@@H]1NC(=O)[C@@H]2CSSC[C@H](NC(=O)[C@H](CCC(=O)O)NC(=O)[C@@H](N)CC#N)C(=O)N[C@@H](CCC(N)=O)C(=O)N[C@@H](CCCCN)C(=O)N[C@@H](Cc3c[nH]c4ccccc34)C(=O)N[C@@H](CCCC)C(=O)N[C@@H](Cc3c[nH]c4ccccc34)C(=O)N[C@@H]([C@@H](C)O)C(=O)N[C@H]3CSSC[C@H](NC(=O)[C@H](CCCNC(=N)N)NC(=O)[C@H](CC(C)C)NC(=O)CNC1=O)C(=O)N[C@@H](CCCCN)C(=O)N[C@@H](CC(C)C)C(=O)N[C@@H](Cc1c[nH]c4ccccc14)C(=O)N[C@H](C(=O)N[C@@H](CCCNC(=N)N)C(=O)N[C@@H](CCCCN)C(=O)N[C@@H](CCC(=O)O)C(=O)N[C@@H](CC1CCCCC1)C(N)=O)CSSC[C@H](NC(=O)[C@H](C)NC(=O)[C@H](CCCNC(=N)N)NC(=O)[C@H](CCCCN)NC(=O)[C@H](CCC(=O)O)NC(=O)[C@H](CC(=O)O)NC3=O)C(=O)N2` [compound 869] (H-[Ala(CN)]ECQKW[Nle]WTCDEKRACC[Pra]GLRCKLWCRKE[Cha]-NH2; disulfide 3-17, 10-22, 16-26), on hNav1.4, the IC50 was determined as 294 nM and the Nav1.4/Nav1.7 came out at 311. Also, the IC50 on hNav1.7 amounted to 0.95 nM.
The corresponding values for `C#CC[C@H](N)C(=O)N[C@@H](Cc1ccc(O)cc1)C(=O)N[C@H]1CSSC[C@@H]2NC(=O)[C@@H]3CSSC[C@@H](C(=O)N[C@@H](CCCNC(=N)N)C(=O)N[C@@H](CCCCN)C(=O)N4CCC[C@H]4C(=O)N[C@H](C(N)=O)[C@@H](C)CC)NC(=O)[C@H](Cc4c[nH]c5ccccc45)NC(=O)[C@H](CC(C)C)NC(=O)[C@H](CCCCN)NC(=O)[C@H](CSSC[C@H](NC(=O)[C@H]([C@@H](C)O)NC(=O)[C@H](Cc4c[nH]c5ccccc45)NC(=O)[C@H](CCCC)NC(=O)[C@H](Cc4c[nH]c5ccccc45)NC(=O)[C@H](CCCCN)NC(=O)[C@H](CCC(N)=O)NC1=O)C(=O)N[C@@H](CC(=O)O)C(=O)N[C@@H](CO)C(=O)N[C@@H](CCCCN)C(=O)N[C@@H](CCCNC(=N)N)C(=O)N[C@@H](C)C(=O)N3)NC(=O)[C@H](CCCNC(=N)N)NC(=O)[C@H](CC(C)C)NC(=O)CNC(=O)[C@H](CCC(=O)O)NC2=O` [compound 657] are 206 nM, 105 and 1.97 nM.
The matching figures for `C#CC[C@H](N)C(=O)N[C@@H](Cc1ccc(O)cc1)C(=O)N[C@H]1CSSC[C@@H]2NC(=O)[C@@H]3CSSC[C@@H](C(=O)N[C@@H](CCCNC(=N)N)C(=O)N[C@@H](CCCCN)C(=O)N[C@@H](CCC(=O)O)C(=O)N[C@H](C(N)=O)[C@@H](C)CC)NC(=O)[C@H](Cc4c[nH]c5ccccc45)NC(=O)[C@H](CCCC)NC(=O)[C@H](CCCCN)NC(=O)[C@H](CSSC[C@H](NC(=O)[C@H]([C@@H](C)O)NC(=O)[C@H](Cc4c[nH]c5ccccc45)NC(=O)[C@H](CCCC)NC(=O)[C@H](Cc4c[nH]c5ccccc45)NC(=O)[C@H](CCCCN)NC(=O)[C@H](CCC(N)=O)NC1=O)C(=O)N[C@@H](CC(=O)O)C(=O)N[C@@H](CO)C(=O)N[C@@H](CCCCN)C(=O)N[C@@H](CCCNC(=N)N)C(=O)N[C@@H](C)C(=O)N3)NC(=O)[C@H](CCCNC(=N)N)NC(=O)[C@H](CC(C)C)NC(=O)CNC(=O)[C@H](CCC(=O)O)NC2=O` [compound 856]: 102 nM, 59 and 1.72 nM.
With `C#CC[C@H](N)C(=O)N[C@@H](Cc1ccc(O)cc1)C(=O)N[C@H]1C[Se][Se]C[C@@H]2NC(=O)[C@@H]3CSSC[C@@H](C(=O)N[C@@H](CCCNC(=N)N)C(=O)N[C@@H](CCCCN)C(=O)N[C@@H](CCC(=O)O)C(=O)N[C@H](C(N)=O)[C@@H](C)CC)NC(=O)[C@H](Cc4c[nH]c5ccccc45)NC(=O)[C@H](CC(C)C)NC(=O)[C@H](CCCCN)NC(=O)[C@H](CSSC[C@H](NC(=O)[C@H]([C@@H](C)O)NC(=O)[C@H](Cc4c[nH]c5ccccc45)NC(=O)[C@H](CCCC)NC(=O)[C@H](Cc4c[nH]c5ccccc45)NC(=O)[C@H](CCCCN)NC(=O)[C@H](CCC(N)=O)NC1=O)C(=O)N[C@@H](CC(=O)O)C(=O)N[C@@H](CO)C(=O)N[C@@H](CCCCN)C(=O)N[C@@H](CCCNC(=N)N)C(=O)N[C@@H](C)C(=O)N3)NC(=O)[C@H](CCCNC(=N)N)NC(=O)[C@H](CC(C)C)NC(=O)CNC(=O)[C@H](CCC(=O)O)NC2=O` [compound 838], the half-inhibitory concentration (IC50) came to 58.1 nM at hNav1.4 and 0.949 nM at hNav1.7. The Nav1.4/Nav1.7 on hNav1.4 is 61.
Turning to `C#CC[C@H](N)C(=O)N[C@@H](Cc1ccc(O)cc1)C(=O)N[C@H]1CSSC[C@@H]2NC(=O)[C@@H]3CSSC[C@@H](C(=O)N[C@@H](CCCNC(=N)N)C(=O)N[C@@H](CCCCN)C(=O)N[C@@H](CCC(=O)O)C(=O)N[C@@H](CC4CCCCC4)C(N)=O)NC(=O)[C@H](Cc4c[nH]c5ccccc45)NC(=O)[C@H](CC(C)C)NC(=O)[C@H](CCCCN)NC(=O)[C@H](CSSC[C@H](NC(=O)[C@H]([C@@H](C)O)NC(=O)[C@H](Cc4c[nH]c5ccccc45)NC(=O)[C@H](CCCC)NC(=O)[C@H](Cc4c[nH]c5ccccc45)NC(=O)[C@H](CCCCN)NC(=O)[C@H](CCC(N)=O)NC1=O)C(=O)N[C@@H](CC(=O)O)C(=O)N[C@@H](CO)C(=O)N[C@@H](CCCCN)C(=O)N[C@@H](CCCNC(=N)N)C(=O)N[C@@H](C)C(=O)N3)NC(=O)[C@H](CCCNC(=N)N)NC(=O)[C@H](CC(C)C)NC(=O)CNC(=O)[C@H](CCC(=O)O)NC2=O` [compound 862], at hNav1.4, the IC50 worked out at 36.6 nM and the Nav1.4/Nav1.7 was 62. The IC50 on hNav1.7 was 0.593 nM.
On to `C#CC[C@H](N)C(=O)N[C@@H](Cc1ccc(O)cc1)C(=O)N[C@H]1CSSC[C@@H]2NC(=O)[C@@H]3CSSC[C@@H](C(=O)N[C@@H](CCCNC(=N)N)C(=O)N[C@@H](CCCCN)C(=O)N[C@H](C(=O)N[C@H](C(N)=O)[C@@H](C)CC)[C@@H](C)CC)NC(=O)[C@H](Cc4c[nH]c5ccc(Br)cc45)NC(=O)[C@H](CC(C)C)NC(=O)[C@H](CCCCN)NC(=O)[C@H](CSSC[C@H](NC(=O)[C@H]([C@@H](C)O)NC(=O)[C@H](Cc4c[nH]c5ccccc45)NC(=O)[C@H](CCCC)NC(=O)[C@H](Cc4c[nH]c5ccccc45)NC(=O)[C@H](CCCCN)NC(=O)[C@H](CCC(N)=O)NC1=O)C(=O)N[C@@H](CC(=O)O)C(=O)N[C@@H](CO)C(=O)N[C@@H](CCCCN)C(=O)N[C@@H](CCCNC(=N)N)C(=O)N[C@@H](C)C(=O)N3)NC(=O)[C@H](CCCNC(=N)N)NC(=O)[C@H](CC(C)C)NC(=O)CNC(=O)[C@H](CCC(=O)O)NC2=O` [compound 871], for which, on hNav1.4, the IC50 was 11 nM and the Nav1.4/Nav1.7 came out at 7. In addition, the IC50 at hNav1.7 worked out at 1.66 nM.
